Measured values: US5478828A, “Piperazinyl-and piperidinyl-cyclohexanols” (Bristol-Myers Squibb Company, priority 1995, dated 1995)

Columns and labels:
[1] = test system: rat social interaction task (anxiety); assay: Rat social interaction task (in vivo model of anxiety); conditions: given subcutaneously
5-HT1A receptor = assay: In vitro receptor binding, 5-HT1A
Experimental: In vitro IC50 test values for binding to the 5-HT1A receptor were determined for representative compounds of Formula I by the method of S. J. Peroutka, Brain Research 344, 167 (1985); with only minor modifications. Test IC50 values lower than 100 nM are considered to reflect activity at the 5-HT1A receptor.

IC50 (5-HT1A receptor): 34.7 nM
Structure (SMILES): O[C@]1(c2ccc(F)cc2)CC[C@H](N2CCN(Cc3cc(F)ccc3F)CC2)CC1 [Example 36, Z-1-(4-Fluorophenyl)-4-[4-[(2,5-difluorophenyl)methyl]-1-piperazinyl]cyclohexanol]
Rat social interaction task, active doses [1]: 0.01-10 mpk
